# Laboratory results from the supplement of paper PMC10307832.
# Columns and labels:
# Assay in all cases: relative viability (nuclei count vs DMSO), 5 days (fraction); higher = more cells survive
# AZ3146 + Lapatinib = compound: CN1CCC(CC1)OC2=CC(=C(C=C2)NC3=NC=C4C(=N3)N(C(=O)N4C)C5CCCC5)OC [AZ3146] + CS(=O)(=O)CCNCc1ccc(-c2ccc3ncnc(Nc4ccc(OCc5cccc(F)c5)c(Cl)c4)c3c2)o1 [Lapatinib] (partner 2 µM)
# Summary of the method: (§1)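 Five library-drug doses in √10 steps were combined with a fixed anchor-drug dose, or a single drug was given alone, by pin tool to lung cancer cell lines in 1536-well plates the day after seeding. Nuclei were stained and counted after 5 days. Relative viability is the nuclei count in treated wells over that in vehicle wells, taken as the median of duplicate plates.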
# GSK-J4 + Phenformin = compound: CCOC(=O)CCNc1cc(N2CCc3ccccc3CC2)nc(-c2ccccn2)n1 [GSK-J4] + N=C(N)NC(=N)NCCc1ccccc1 [Phenformin] (partner 250 µM)
# Summary of the method: as §1
# GSK-J4 + Vorinostat = compound: CCOC(=O)CCNc1cc(N2CCc3ccccc3CC2)nc(-c2ccccn2)n1 [GSK-J4] + O=C(CCCCCCC(=O)Nc1ccccc1)NO [Vorinostat] (partner 1 µM)
# Summary of the method: as §1
# AZ3146 + Vorinostat = compound: CN1CCC(CC1)OC2=CC(=C(C=C2)NC3=NC=C4C(=N3)N(C(=O)N4C)C5CCCC5)OC [AZ3146] + O=C(CCCCCCC(=O)Nc1ccccc1)NO [Vorinostat] (partner 1 µM)
# Summary of the method: as §1
Cell Line,relative viability (AZ3146 + Lapatinib; first compound 0.08 µM),relative viability (AZ3146 + Lapatinib; first compound 0.253 µM),relative viability (AZ3146 + Lapatinib; first compound 0.8 µM),relative viability (AZ3146 + Lapatinib; first compound 2.53 µM),relative viability (AZ3146 + Lapatinib; first compound 8 µM),relative viability (GSK-J4 + Phenformin; first compound 0.5 µM),relative viability (GSK-J4 + Phenformin; first compound 1.581 µM),relative viability (GSK-J4 + Phenformin; first compound 5 µM),relative viability (GSK-J4 + Phenformin; first compound 15.81 µM),relative viability (GSK-J4 + Phenformin; first compound 50 µM),relative viability (GSK-J4 + Vorinostat; first compound 0.5 µM),relative viability (GSK-J4 + Vorinostat; first compound 1.581 µM),relative viability (GSK-J4 + Vorinostat; first compound 15.81 µM),relative viability (GSK-J4 + Vorinostat; first compound 50 µM),relative viability (AZ3146 + Vorinostat; first compound 0.08 µM),relative viability (AZ3146 + Vorinostat; first compound 0.253 µM),relative viability (AZ3146 + Vorinostat; first compound 0.8 µM),relative viability (AZ3146 + Vorinostat; first compound 2.53 µM),relative viability (AZ3146 + Vorinostat; first compound 8 µM),relative viability (GSK-J4 + Vorinostat; first compound 5 µM)
EBC-1,0.2,0.218,0.183,0.201,0.208,,,,,,,,,,,,,,,
NCI-H522,,,,,,0.64,0.656,0.595,0.543,0.588,0.931,0.725,0.651,0.862,0.66,0.695,0.945,0.903,0.835,
NCI-H1648,,,,,,,,,,,0.527,,,0.415,,,0.554,0.498,0.634,0.868
NCI-H2342,,,,,,0.652,0.629,0.573,0.706,0.595,0.81,0.842,1.09,1.02,0.705,0.688,1.01,0.695,0.764,0.887
NCI-H1299,0.892,0.97,0.985,0.958,0.787,,,,,,,,,,,,,,,
SW 900,,,,,,0.581,0.592,0.617,0.402,0.246,0.607,0.414,0.408,0.483,0.465,,0.393,0.48,0.446,0.79
IA-LM,,0.955,0.718,0.72,0.49,,,,,,0.901,,0.711,0.294,0.674,0.872,1.01,0.924,1.06,1.34
A549,0.977,0.948,0.924,0.872,0.109,0.146,0.156,0.0648,0.0756,0.103,,,,,,,,,,
